Measurements reported in ChEMBL document CHEMBL3351640, “Design, regioselective synthesis and cytotoxic evaluation of 2-aminoimidazole-quinoline hybrids against cancer and primary endothelial cells” (Eur J Med Chem, 2014).

Assays:
[1] = Cytotoxicity against human HCT116 cells after 48 hrs by MTT assay; type: functional, cell-based; conditions: HCT-116, 48 h
HUVEC = experiment: Cytotoxicity against HUVEC cells after 48 hrs by MTT assay; type: cell-based; conditions: Homo sapiens
MDA-MB-231 = experiment: Cytotoxicity against human MDA-MB-231 cells after 48 hrs by MTT assay; type: functional, cell-based; conditions: MDA-MB-231, 48 h
[2] = Cytotoxicity against human DLD1 cells after 48 hrs by MTT assay; type: functional, cell-based; conditions: DLD-1, 48 h

Compound	IC50 [1] [µM]	IC50 (HUVEC) [µM]	IC50 (MDA-MB-231) [µM]	IC50 [2] [µM]
Nc1nc(-c2ccccc2)cn1/N=C/c1cc2ccccc2nc1Cl	6.92	46.7	49	16.4
Cc1ccc(-c2cn(/N=C/c3cc4ccccc4nc3Cl)c(N)n2)cc1	> 50	> 50	> 50	> 50
COc1ccc(-c2cn(/N=C/c3cc4ccccc4nc3Cl)c(N)n2)cc1	31.8	12.4	> 50	> 50
Nc1nc(-c2ccc(Cl)cc2)cn1/N=C/c1cc2ccccc2nc1Cl	> 50	28	> 50	> 50
Nc1nc(-c2ccc(Br)cc2)cn1/N=C/c1cc2ccccc2nc1Cl	> 50	11.9	> 50	23.9
Cc1ccc2nc(Cl)c(/C=N/n3cc(-c4ccccc4)nc3N)cc2c1	7.12	41.5	48.1	8.79
Cc1ccc(-c2cn(/N=C/c3cc4cc(C)ccc4nc3Cl)c(N)n2)cc1	39.6	18	22.3	25.2
COc1ccc(-c2cn(/N=C/c3cc4cc(C)ccc4nc3Cl)c(N)n2)cc1	> 50	12.2	23.6	25.7
Cc1ccc2nc(Cl)c(/C=N/n3cc(-c4ccc(Cl)cc4)nc3N)cc2c1	> 50	38.5	35.2	38.9
Cc1ccc2nc(Cl)c(/C=N/n3cc(-c4ccc(Br)cc4)nc3N)cc2c1	49.9	13.4	38.2	39.3
Nc1nc(-c2cccc3ccccc23)cn1/N=C/c1cc2ccccc2nc1Cl	6.34	> 50	> 50	9.48
Nc1nc(-c2ccc3ccccc3c2)cn1/N=C/c1cc2ccccc2nc1Cl	> 50	36.2	> 50	> 50
Cc1ccc2nc(Cl)c(/C=N/n3cc(-c4cccc5ccccc45)nc3N)cc2c1	5.84	9.58	> 50	8.3
Cc1ccc2nc(Cl)c(/C=N/n3cc(-c4ccc5ccccc5c4)nc3N)cc2c1	27.4	11.3	35.6	10.2
Nc1nc(-c2cccs2)cn1/N=C/c1cc2ccccc2nc1Cl	7.22	10.2	> 50	10.3
Cc1ccc2nc(Cl)c(/C=N/n3cc(-c4cccs4)nc3N)cc2c1	7.71	38	> 50	8.99
COc1cccc2c1C(=O)c1c(O)c3c(c(O)c1C2=O)C[C@@](O)(C(=O)CO)C[C@@H]3O[C@H]1C[C@H](N)[C@H](O)[C@H](C)O1 [DOXORUBICIN]	0.34	–	1.47	0.84
